In ChEMBL document CHEMBL4613322, “HOPPI-NMR: Hot-Peptide-Based Screening Assay for Inhibitors of Protein-Protein Interactions by NMR” (ACS Med Chem Lett, 2020):
Blank lines part the entries; values can stand above or below the compound they belong to. Calls of active or inactive are those of the source. No cut-off for these calls is given here. Peptide text beside a SMILES is read from it.

Experiments:
[1] = molecular target: T1, E3 ubiquitin-protein ligase Mdm2 (Homo sapiens, UniProt Q00987); experiment: Competitive binding affinity to 6xHis-taged MDM2 (unknown origin) expressed in Escherichia coli Gold (DE3) assessed as reduction in STD signal intensity at 0.1 mM in presence of 0.1 mM nutlin-3a by STD-NMR analysis
Target sequence in this assay (Q00987 whole entry, looked up): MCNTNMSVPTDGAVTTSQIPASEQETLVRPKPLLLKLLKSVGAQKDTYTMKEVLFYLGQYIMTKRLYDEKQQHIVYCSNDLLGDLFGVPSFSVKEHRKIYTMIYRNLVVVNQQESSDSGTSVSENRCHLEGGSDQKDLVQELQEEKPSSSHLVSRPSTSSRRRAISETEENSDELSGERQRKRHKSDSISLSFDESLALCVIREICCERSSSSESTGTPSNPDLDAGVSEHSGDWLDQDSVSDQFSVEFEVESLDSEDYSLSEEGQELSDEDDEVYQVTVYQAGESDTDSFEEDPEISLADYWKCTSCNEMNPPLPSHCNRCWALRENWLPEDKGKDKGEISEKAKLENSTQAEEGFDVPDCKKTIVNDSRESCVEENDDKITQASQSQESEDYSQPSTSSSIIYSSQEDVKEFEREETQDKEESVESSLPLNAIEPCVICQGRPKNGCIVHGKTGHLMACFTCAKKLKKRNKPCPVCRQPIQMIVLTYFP

[2] = molecular target: T1, E3 ubiquitin-protein ligase Mdm2; experiment: Binding affinity to 6xHis-taged MDM2 (unknown origin) expressed in Escherichia coli Gold (DE3) assessed as observation of positive signal at 0.1 mM by STD-NMR analysis
Target sequence in this assay (Q00987 whole entry, looked up): as above

[3] = molecular target: T1, E3 ubiquitin-protein ligase Mdm2; experiment: Competitive binding affinity to 6xHis-taged MDM2 (unknown origin) expressed in Escherichia coli Gold (DE3) assessed as reduction in signal intensity at 0.1 mM in presence of 0.1 mM nutlin-3a by WATERLOGSY-NMR analysis
Target sequence in this assay (Q00987 whole entry, looked up): as above

[4] = molecular target: T1, E3 ubiquitin-protein ligase Mdm2; experiment: Binding affinity to 6xHis-taged MDM2 (unknown origin) expressed in Escherichia coli Gold (DE3) assessed as increase in signal-to-noise ratio at 0.1 mM by STD-NMR analysis
Target sequence in this assay (Q00987 whole entry, looked up): as above

[5] = molecular target: T1, E3 ubiquitin-protein ligase Mdm2; experiment: Binding affinity to 6xHis-taged MDM2 (unknown origin) expressed in Escherichia coli Gold (DE3) assessed as change in signal intensity at 0.1 mM by WATERLOGSY-NMR analysis
Target sequence in this assay (Q00987 whole entry, looked up): as above

[6] = molecular target: T1, E3 ubiquitin-protein ligase Mdm2; experiment: Binding affinity to N-terminal 6xHis-tagged MDM2 (unknown origin) (1 to 126 residues) assessed as inhibition of MDM2/p53 protein-protein interaction by fluorescence anisotrophy assay
Target sequence in this assay (Q00987 whole entry): as the sequence (Q00987 whole entry, looked up) above

[7] = molecular target: Ras-related protein Rab-6A (Homo sapiens, UniProt P20340); experiment: Binding affinity to RAB6A (unknown origin) assessed as inhibition of RAB6A/[…] protein-protein interaction
[8] = Binding affinity to IPTG-induced […] human TEV cleavage site-fused- GST-tagged beta-catenin (134 to 665 residues) assessed as inhibition of beta-catenin/axin protein-protein interaction after 45 mins by fluorescence polarization assay
[9] = molecular target: T1, E3 ubiquitin-protein ligase Mdm2; experiment: Binding affinity to 6xHis-taged MDM2 (unknown origin) expressed in Escherichia coli Gold (DE3) assessed as inversion of signal intensity from negative to positive at 0.1 mM by WATERLOGSY-NMR analysis
Target sequence in this assay (Q00987 whole entry, looked up): as above

[10] = molecular target: T1, E3 ubiquitin-protein ligase Mdm2; experiment: Competitive binding affinity to 6xHis-taged MDM2 (unknown origin) expressed in Escherichia coli Gold (DE3) assessed as observation of residual signal at 0.1 mM in presence of 0.1 mM nutlin-3a by STD-NMR analysis
Estrogen receptor = molecular target: T2, Estrogen receptor (Homo sapiens, UniProt P03372); experiment: Binding affinity to IPTG-induced human ER alpha LBD (301 to 553 residues) expressed in Escherichia coli BL21 (DE3) assessed as inhibition of ER alpha/NR2A protein-protein interaction at 25 degree by surface plasmon resonance assay
T2 sequence (P03372 whole entry): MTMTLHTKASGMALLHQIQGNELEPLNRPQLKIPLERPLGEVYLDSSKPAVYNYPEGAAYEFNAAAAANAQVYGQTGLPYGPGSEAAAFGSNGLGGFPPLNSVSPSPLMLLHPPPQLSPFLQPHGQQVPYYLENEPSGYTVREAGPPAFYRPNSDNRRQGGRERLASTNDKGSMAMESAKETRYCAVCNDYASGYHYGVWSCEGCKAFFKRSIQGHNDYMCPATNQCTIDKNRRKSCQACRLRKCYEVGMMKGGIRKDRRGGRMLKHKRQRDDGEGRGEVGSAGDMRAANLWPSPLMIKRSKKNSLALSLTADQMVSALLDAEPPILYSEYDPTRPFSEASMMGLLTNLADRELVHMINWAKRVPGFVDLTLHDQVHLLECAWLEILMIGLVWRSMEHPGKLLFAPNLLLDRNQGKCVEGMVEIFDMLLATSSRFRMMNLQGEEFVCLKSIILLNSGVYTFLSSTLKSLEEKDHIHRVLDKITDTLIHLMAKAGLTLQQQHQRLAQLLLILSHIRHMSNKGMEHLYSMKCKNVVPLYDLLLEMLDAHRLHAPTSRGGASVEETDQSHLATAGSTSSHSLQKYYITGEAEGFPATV

[11] = Binding affinity to Plasmodium falciparum N-terminal His6-tagged MTIP expressed in Escherichia coli BL21 (DE3) assessed as inhibition of MTIP/MyoA protein-protein interaction at 303 K by isothermal titration calorimetry
[12] = molecular target: T3, BTB/POZ domain-containing protein KCTD11 (Homo sapiens, UniProt Q693B1); experiment: Binding affinity to recombinant N-terminal poly His-Trx tagged KCTD11 (15 to 115 residues) (unknown origin) expressed in Escherichia coli assessed as inhibition of KCTD11/cullin3a protein-protein interaction by fluorescence polarization assay
T3 sequence (Q693B1 whole entry): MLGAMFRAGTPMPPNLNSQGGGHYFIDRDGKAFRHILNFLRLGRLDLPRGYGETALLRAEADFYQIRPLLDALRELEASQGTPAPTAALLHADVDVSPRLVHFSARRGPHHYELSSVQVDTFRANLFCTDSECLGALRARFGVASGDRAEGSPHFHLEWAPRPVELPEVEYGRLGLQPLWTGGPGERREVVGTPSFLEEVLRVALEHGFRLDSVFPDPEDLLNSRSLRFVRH

Menin = molecular target: T4, Menin (Homo sapiens, UniProt O00255); experiment: Binding affinity to human Menin expressed in Escherichia coli BL21 (DE3) assessed as inhibition of Menin/MLL1 protein-protein at 20 degree C by isothermal titration calorimetry
T4 sequence (O00255 whole entry): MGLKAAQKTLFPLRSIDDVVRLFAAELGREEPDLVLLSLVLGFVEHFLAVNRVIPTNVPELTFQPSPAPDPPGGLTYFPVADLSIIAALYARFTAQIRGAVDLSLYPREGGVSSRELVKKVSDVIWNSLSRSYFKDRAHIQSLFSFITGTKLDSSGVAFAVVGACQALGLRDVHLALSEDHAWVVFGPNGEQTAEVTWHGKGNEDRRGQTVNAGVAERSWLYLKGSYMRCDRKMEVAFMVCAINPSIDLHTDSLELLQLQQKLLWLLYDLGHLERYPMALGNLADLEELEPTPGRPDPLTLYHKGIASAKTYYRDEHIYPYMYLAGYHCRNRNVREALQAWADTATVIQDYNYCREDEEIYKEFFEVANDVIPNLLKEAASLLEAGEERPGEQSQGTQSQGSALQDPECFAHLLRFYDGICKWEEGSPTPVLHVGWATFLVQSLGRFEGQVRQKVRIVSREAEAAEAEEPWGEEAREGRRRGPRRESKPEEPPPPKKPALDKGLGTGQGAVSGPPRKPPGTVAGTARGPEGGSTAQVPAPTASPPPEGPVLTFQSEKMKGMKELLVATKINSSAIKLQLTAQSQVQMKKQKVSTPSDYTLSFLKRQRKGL

Sequence of Ras-related protein Rab-6A (P20340 whole entry, the tested form may be a part): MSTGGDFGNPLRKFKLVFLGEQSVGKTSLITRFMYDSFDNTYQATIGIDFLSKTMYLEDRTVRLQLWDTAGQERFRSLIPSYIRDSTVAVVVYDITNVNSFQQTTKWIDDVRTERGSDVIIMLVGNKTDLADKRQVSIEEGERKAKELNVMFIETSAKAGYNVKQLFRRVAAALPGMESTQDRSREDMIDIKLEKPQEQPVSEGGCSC

Compound: CC(C)C[C@H](NC(=O)[C@H](CC(C)C)NC(=O)[C@H](CCCCN)NC(=O)[C@H](Cc1c[nH]c2ccccc12)NC(=O)[C@H](CC(C)C)NC(=O)[C@H](CC(=O)O)NC(=O)[C@H](CO)NC(=O)[C@@H](N)Cc1ccccc1)C(=O)O
Activity [1]: Active | Activity [2]: Active | Activity [3]: Active | Activity [4]: Active | Activity [5]: Active | Kd [6]: 0.8 µM

Kd [7]: 20 µM
Compound: CC(C)C[C@H](NC(=O)[C@H](CC(C)C)NC(=O)[C@H](Cc1cnc[nH]1)NC(=O)[C@H](Cc1ccc(O)cc1)NC(=O)[C@H](CC(C)C)NC(=O)[C@H](Cc1ccccc1)NC(=O)[C@H](CCC(N)=O)NC(=O)[C@H](CCC(=O)O)NC(=O)[C@H](CCCCN)NC(=O)[C@H](CCC(=O)O)NC(=O)[C@H](CC(=O)O)NC(=O)[C@@H](N)CC(=O)O)C(=O)N[C@@H](CO)C(=O)N[C@@H](Cc1ccccc1)C(=O)N[C@@H](CC(N)=O)C(=O)N[C@@H](C)C(=O)N[C@H](C(=O)O)C(C)C (H-DDEKEQFLYHLLSFNAV-OH)

Kd [8]: 5 µM
Compound: CC[C@H](C)[C@H](NC(=O)[C@H](CO)NC(=O)[C@H](CCC(=O)O)NC(=O)[C@@H]1CCCN1C(=O)[C@H](CC(N)=O)NC(=O)[C@@H](N)CCC(=O)O)C(=O)N[C@@H](CC(C)C)C(=O)N[C@@H](CC(=O)O)C(=O)N[C@@H](CCC(=O)O)C(=O)N[C@@H](Cc1cnc[nH]1)C(=O)N[C@H](C(=O)N[C@@H](CCC(N)=O)C(=O)N[C@@H](CCCNC(=N)N)C(=O)N[C@H](C(=O)N[C@@H](CCSC)C(=O)O)C(C)C)C(C)C (H-ENPESILDEHVQRVM-OH)

Activity [1]: Active | Activity [9]: Active | Activity [2]: Active | Activity [3]: Active | Activity [10]: Active | Activity [4]: Active | Kd [6]: 150 µM
Compound: CC(C)C[C@H](NC(=O)[C@H](CCCCN)NC(=O)[C@H](Cc1c[nH]c2ccccc12)NC(=O)[C@H](CC(C)C)NC(=O)[C@H](CC(=O)O)NC(=O)[C@H](CO)NC(=O)[C@@H](N)Cc1ccccc1)C(=O)O (H-FSDLWKL-OH)

Kd (Estrogen receptor): 2.5 µM
Compound: CC[C@H](C)[C@H](NC(=O)[C@H](CCCCN)NC(=O)[C@@H](N)Cc1cnc[nH]1)C(=O)N[C@@H](CC(C)C)C(=O)N[C@@H](Cc1cnc[nH]1)C(=O)N[C@@H](CCCNC(=N)N)C(=O)N[C@@H](CC(C)C)C(=O)N[C@@H](CC(C)C)C(=O)N[C@@H](CCC(N)=O)C(=O)N[C@@H](CC(=O)O)C(=O)N[C@@H](CO)C(=O)O (H-HKILHRLLQDS-OH)

Compound: CC[C@H](C)[C@H](NC(=O)[C@H](Cc1cnc[nH]1)NC(=O)[C@H](C)NC(=O)[C@H](CCC(N)=O)NC(=O)[C@@H](NC(=O)[C@H](CCCNC(=N)N)NC(=O)[C@H](CC(C)C)NC(=O)[C@H](CC(C)C)NC(=O)[C@H](CO)NC(=O)[C@@H]1CCCN1C(=O)[C@@H](NC(=O)[C@@H](N)CC(N)=O)[C@@H](C)CC)C(C)C)C(=O)N[C@@H](CCCNC(=N)N)C(=O)N[C@@H](CCCCN)C(=O)N[C@@H](CCCCN)C(=O)N[C@@H](CCSC)C(=O)N[C@H](C(=O)N[C@@H](C)C(=O)N[C@@H](CCC(N)=O)C(=O)O)C(C)C (H-NIPSLLRVQAHIRKKMVAQ-OH)
Kd [11]: 0.085 µM

Kd [12]: 0.497 µM
Compound: CSCC[C@H](NC(=O)[C@@H](NC(=O)[C@H](Cc1ccc(O)cc1)NC(=O)[C@H](C)NC(=O)[C@H](CC(N)=O)NC(=O)[C@H](CCCNC(=N)N)NC(=O)[C@H](Cc1ccc(O)cc1)NC(=O)[C@H](CC(C)C)NC(=O)[C@H](CCC(=O)O)NC(=O)[C@H](CCC(=O)O)NC(=O)[C@H](Cc1ccccc1)NC(=O)[C@H](CO)NC(=O)[C@H](CC(C)C)NC(=O)CNC(=O)[C@H](CO)NC(=O)[C@@H](N)CC(N)=O)[C@@H](C)O)C(=O)N[C@H](C(=O)N[C@@H](CC(C)C)C(=O)N[C@@H](Cc1cnc[nH]1)C(=O)N[C@@H](CCCCN)C(=O)O)C(C)C (H-NSGLSFEELYRNAYTMVLHK-OH)

Kd (Menin): 0.082 µM
Compound: C[C@H](NC(=O)[C@@H]1CCCN1C(=O)[C@H](Cc1ccccc1)NC(=O)[C@H](CCCNC(=N)N)NC(=O)[C@H](Cc1c[nH]c2ccccc12)NC(=O)[C@@H](N)CCCNC(=N)N)C(=O)N[C@@H](CCCNC(=N)N)C(=O)N1CCC[C@H]1C(=O)NCC(=O)N[C@H](C(=O)N[C@H](C(=O)NCC(=O)NCC(=O)NCC(=O)NCC(=O)NCC(=O)NCC(=O)NCC(=O)N[C@@H](CCCNC(=N)N)C(=O)N[C@@H](CCCNC(=N)N)C(=O)O)[C@@H](C)O)[C@@H](C)O (H-RWRFPARPGTTGGGGGGGRR-OH)
